“And” between values parts separate entries of the source, which are not always exact repeats. Identical values can stand only once. ± gives the expanded uncertainty stated by the source.
Assay: mn = molality of the nth substance listed, in mol/kg
Details: 298.15 K, 101.33 kPa, Liquid

CCCC[N+](CCCC)(CCCC)CCCC.[Br-] [tetrabutylammonium bromide] + O
Details | mass density [kg/m3]
m1 = 0.0509 | 998.2 ± 0.42
m1 = 0.1034 | 999.39 ± 0.42
m1 = 0.2709 | 1003.18 ± 0.43
m1 = 0.589 | 1010.09 ± 0.44
m1 = 0.7318 | 1013.27 ± 0.45

CC[N+](CC)(CC)CC.[Br-] [tetraethylammonium bromide] + O
Details | mass density
m1 = 0.102 | 1000.71 ± 0.42 kg/m3
m1 = 0.4023 | 1010.95 ± 0.44 kg/m3
m1 = 0.549 | 1015.83 ± 0.46 kg/m3
m1 = 1.212 | 1035.35 ± 0.43 kg/m3 and 1035.67 ± 0.5 kg/m3

C[N+](C)(C)C.[Br-] [tetramethylammonium bromide] + O
Details | mass density
m1 = 0.2579 | 1006.85 ± 0.48 kg/m3
m1 = 0.258 | 1006.83 ± 0.58 kg/m3
m1 = 0.2581 | 1006.9 ± 0.48 kg/m3
m1 = 0.532 | 1016.59 ± 0.6 kg/m3
m1 = 0.5322 | 1016.42 ± 0.5 kg/m3
m1 = 0.5325 | 1016.59 ± 0.5 kg/m3
m1 = 0.8105 | 1025.86 ± 0.52 kg/m3
m1 = 0.8239 | 1026.24 ± 0.62 kg/m3
m1 = 1.134 | 1036.07 ± 0.64 kg/m3 and 1035.72 ± 0.54 kg/m3
m1 = 1.839 | 1046.9 ± 0.66 kg/m3

Reference: the NIST ThermoML archive (doi:10.1016/j.jct.2003.09.008)
